In BigSolDB 2.1:

COc1ccc(-n2nc(C(N)=O)c3c2C(=O)N(c2ccc(N4CCCCC4=O)cc2)CC3)cc1
solubility (mole fraction)
Conditions	288.15 K	293.15 K	298.15 K	303.15 K	308.15 K	313.15 K	318.15 K	323.15 K	328.15 K
in acetone	0.00024	0.000276	0.00032	0.000377	0.000436	0.00051	0.000584	0.000669	0.000754
in ethanol	0.000112	0.000144	0.00018	0.00022	0.000268	0.00033	0.000402	0.000474	0.000572
in isopropanol	6.12e-05	7.67e-05	9.95e-05	0.000133	0.000167	0.000214	0.000271	0.00033	0.000404
in methanol	0.000327	0.000416	0.00053	0.000669	0.000842	0.00104	0.00128	0.00156	0.00188
in water	9.68e-06	1.13e-05	1.39e-05	1.67e-05	1.95e-05	2.31e-05	2.74e-05	3.19e-05	3.72e-05
